Measured values reported in patent publication US10702519B2, “Use of methoxatin, derivative and/or salt thereof in Sjogren's syndrome and pharmaceutical composition” (NANJING SHUPENG LIFESCIENCE CO., LTD, priority 2016, dated 2020).
“Also recorded” adds a separate entry of the source. Marks after values point to notes of the source that are not given here.

Legend:
NF-κB = assay: Western Blot detection of NF-κB activation in mouse submandibular gland tissue; type: in vivo; conditions: for phosphorylation level of P65: compared with the control group
Experimental: Detection of NF-κB Activation in Submandibular Gland Tissue of Mouse Submandibular Gland by Western Blot
Take the same amount of total protein for each sample, add 4×SDS loading buffer according to the ratio of protein sample: 4×SDS at 3:1, mix well, boil at 95° C. for 5 min, and prepare 10% separation gel and 5% concentration gel. Perform SDS-PAGE electrophoresis, transfer the membrane, and block the PVDF membrane with 5% solution of skim milk in TBST for 1 hour at room temperature or overnight at 4° C. Dilute antibody with blocking solution, incubate at room temperature for 2 h or 4° C. overnight. Wash membrane, incubate with secondary antibody, and then wash the membrane again. After the equal volume of liquids A and B in the luminescence kit were mixed in a vessel, the mixture was uniformly added dropwise to the PVDF membrane, and the reaction was carried out in the dark for 3-5 minutes.
At the 36th week of treatment, the mouse submandibular glands were taken and Western Blot was used to detect the activation of NF-κB. […] P65 is the protein subunit of NF-κB, and its phosphorylation level directly reflects the activity of NF-κB. In addition, IκB binds to NF-κB to prevent its entry into the nucleus and exerts its activity. Once IκB is phosphorylated, it is degraded and releases NF-κB.

NOD mice = assay: Saliva flow detection (pilocarpine-stimulated) in NOD mouse model of Sjogren's syndrome; type: in vivo; conditions: for salivary flow compared with the control group: P<0.05; for SFR (salivary flow): NOD mice, PQQ 1 mg/kg/day, active vitamin D 0.1 μg/kg/day; for salivary secretion function of NOD mice: summary statement
Description: Model: NOD mouse model. NOD (Non-obese Diabetes) mice are a genetically deficient animal model of spontaneous diabetes. The female mice develop diabetes from 14 weeks and the incidence can reach as high as 80% by 30 weeks. NOD mice are also an animal model of Sjogren's syndrome. Mice develop inflammatory cell infiltration in the submandibular gland from 12 weeks of age, with increased expression of multiple inflammatory factors, and reduced salivary secretion and increased salivary salt concentration from 16 to 20 weeks of age.
Experimental grouping: 8-week-old female NOD mice were purchased from Shanghai SLE Experimental Animal Corporation and divided into control group, active vitamin d group, PQQ group and PQQ combined with active vitamin D group. There were four different treatment groups, 10 in each group. Saliva flow rates were measured at 12, 24, and 36 weeks of age. The amounts of PQQ and active vitamin D were 1 mg/kg body weight per day and 0.1 μg/kg body weight per day, respectively.
a. Intraperitoneal injection of 1.2% avertin (Chinese name: tribromoethanol), injection dose: 0.2 ml/10 g body weight, formula: (1) […] avertin dissolved in 0.25 ml t-amyl alcohol, shaking for 12 hours to completely dissolve; (2) Add 19.75 ml of 0.9% NaCl solution to obtain 1.2% avertin. Mice were anesthetized gently.
b. Subcutaneous pilocarpine injection in the neck, injection dose: 0.5 mg/kg=0.01 mg/20 g body weight, mother liquor concentration: 0.5 g/10 ml physiological saline=50 mg/ml=0.05×103 mg/ml, solution concentration: the mother liquor was diluted 1000 times, ie, 0.05 mg/ml, to stimulate saliva secretion.
c. Began to collect saliva after 5 minutes, that is, cotton ball with about 8 mg dry weight is made from sterile cotton ball, which is then put into a 1.5 mL EP tube to determine the dry weight. When measuring saliva secretion, the cotton ball is put into the mouse cheek and then taken into the EP tube after 10 min. The wet weight is determined on the electronic balance. Saliva secretion=wet weight of cotton balls−dry weight of cotton balls.

[1] = system: SOD in submandibular gland tissue of mice; assay: Detection of SOD content in submandibular gland tissue; type: in vivo, mouse; conditions: for content of SOD compared with the control group: 36 weeks; for SOD (Mean ± SD): submandibular gland tissue of mice at 36 weeks of age
Experimental: Detection of SOD content: The submandibular gland tissue of mice were used to prepare tissue homogenates with icy physiological saline, and the protein content was quantified by BCA method. Refer to the kit operation instructions. Take 0.2 ml of the sample and mix it with 1.3 ml of test solution. Incubate at 37° C. for 40 min. Add 2 ml of chromogenic agent. Placed at room temperature for 10 min. Determine OD at 550 nm. The results are expressed in terms of U/mg protein, which states that the corresponding SOD amount per milligram of protein in a 1 ml reaction solution with a SOD inhibition rate of 50% is an SOD activity unit.

[2] = system: inflammatory factors in mouse submandibular glands tissue; assay: Realtime quantitative PCR of inflammatory factors in mouse submandibular gland tissue; type: in vivo; conditions: for expression of IL-1β / expression of IL-6 / expression of IL-10 / expression of TNF-α: submandibular glands tissue, 36 weeks, p<0.05
Experimental: Take the mouse submandibular gland tissue and extract RNA using Trizol. Superscript III was used for reverse transcription. Reaction was performed at 42° C. for 30 minutes. Oligo dT and Random Hexamer were used as primers for reverse transcription. Realtime quantitative PCR reaction system: 2×PCR premix 10 μl, Primers 0.8 μl, cDNA 1 μl, add balance of H2O to 20 μl; Reaction conditions: 95° C. 10 min, 95° C. 15 s, 60° C. 60 s, Read plate for 50 cycles; Melting curve Analysis: Temperature 55° C.-95° C., read once per minute. Set up 3 replicates for each sample.

[3] = system: MDA in submandibular gland tissue of mice; assay: Detection of MDA content in submandibular gland tissue; type: in vivo, mouse; conditions: for content of MDA compared with the control group: 36 weeks, P<0.05; for MDA (Mean ± SD): submandibular gland tissue of mice at 36 weeks of age
Experimental: Detection of MDA content: The submandibular gland tissue in the submandibular glands of mice were harvested and homogenized with icy physiological saline. The protein content was quantified by BCA. Take 1 ml homogenate, add 1 ml 30% trichloroacetic acid and 1 ml 0.67% TBA in turn, bath in boiling water for 30 min and cool to room temperature. After centrifugation at 3000 g for 10 min, the absorbance (A) of the supernatant was measured at 535 nm, and the MDA content was calculated from the standard curve. The result was expressed in nmol/mg tissue.

[4] = rat, cited from earlier work
[5] = system: mouse submandibular gland tissue; assay: Mouse submandibular gland tissue slice detection (hematoxylin-eosin), lymphocytic infiltration; type: in vivo; conditions: NOD mice, 36 weeks age, FIG. 3
Description: 36 weeks age of mouse submandibular gland tissue was isolated, embedded in paraffin and sliced, stained with hematoxylin-eosin and photographed with an inverted microscope.

[6] = chemical stability of o-quinone structure; cited from earlier work
[7] = submandibular glands, 36th week

Row | SMILES | phosphorylation level of P65 (NF-κB; [7]) | salivary flow compared with the control group (NOD mice; 36th week) | SFR (salivary flow) (NOD mice; 12 W of age) | SFR (salivary flow) (NOD mice; 24 W of age) | SFR (salivary flow) (NOD mice; 36 W of age) | salivary flow compared with the control group (NOD mice; age of 24 weeks) | salivary secretion function of NOD mice (NOD mice) | content of SOD compared with the control group [1] | SOD (Mean ± SD) [1] [NU/mg protein] | expression of IL-1β [2] | expression of IL-6 [2] | expression of IL-10 [2] | expression of TNF-α [2] | content of MDA compared with the control group [3] | MDA (Mean ± SD) [3] [nmol/mg protein] | other results
1 | C=C1/C(=C\C=C2/CCC[C@]3(C)[C@@H]([C@H](C)CCCC(C)(C)O)CC[C@@H]23)C[C@@H](O)C[C@@H]1O [active vitamin D, 1,25-Dihydroxyvitamin D3, reference compound] | no significant change | no statistical difference | 2.74 (n = 10) μl/g/10 min | 2.82 (n = 5) μl/g/10 min | 3.22 (n = 4) μl/g/10 min | no significant difference | no effect | no significant difference | 102.45 ± 14.22 | did not detect the effect | did not detect the effect | did not detect the effect | did not detect the effect | no significant difference | 9.48 ± 2.12 | –
2 | O=C(O)c1cc(C(=O)O)c2c(n1)C(=O)C(=O)c1cc(C(=O)O)[nH]c1-2 [PQQ, Pyrroloquinoline quinone] | significantly attenuated | significantly higher | 2.55 (n = 10) μl/g/10 min | 3.21 (n = 6) μl/g/10 min | 3.75* (n = 5) μl/g/10 min | no significant difference | significantly improve | significantly higher | 198.21 ± 21.33 | significantly inhibited | significantly reduce; also recorded: significantly inhibited | significantly inhibited | significantly inhibited | significantly lower | 4.61 ± 0.76 | activity of NF-kappaB signaling pathway (NF-κB; submandibular gland tissues of NOD mice, summary statement): significantly reduce; phosphorylation level of IκB (NF-κB; [7]): significantly attenuated; adverse reactions ([4]; 100 mg/kg body weight per day for 14 consecutive days): no adverse reactions were found; LD50 [4]: 1000-2000 mg/kg body weight; area of lymphocyte infiltration in submandibular gland [5]: significantly inhibit; also recorded: significantly reduced; expression of Il-1 ([2]; summary and FIG. 2 legend): significantly reduce; expression of gamma interferon ([2]; summary and FIG. 2 legend): significantly reduce; redox cycles it can participate in [6]: 20,000; oxidative stress levels in submandibular gland tissues of NOD mice ([3]; summary statement): significantly inhibit
